Drawing on US9714266B2, “Estra-1,3,5(10),16-tetraene-3-carboxamides for inhibition of 17β-hydroxysteroid dehydrogenase (AKR1C3)” (priority 2013, dated 2017), this text covers IC50 for 28 compounds.

“And” between values parts separate entries of the source, which are not always exact repeats. Equal entries are not always repeated.

The target of this experiment is AKR1C3 (Homo sapiens (Human), UniProt P42330). Description: AKR1C3 enzyme assay (coumberone reduction, fluorescence). Particulars: recombinant human AKR1C3, coumberone 0.3 μM, NADPH 10 μM; read-out: AKR1C3 enzyme inhibition IC50. It is filed as biochemical. As for the experimental part:
The AKR1C3-inhibitory action of the substances of this invention was measured in the AKR1C3 assay described in the paragraphs which follow. Essentially, the enzyme activity is measured by quantifying the coumberol formed from coumberone ([…]., and […]. AM. CHEM. SOC. 130, 14123-14128 (2008) […]., Bauman, D. R., Penning, T. M., and […]., Proc. Natl. Acad. Sci. USA 103, 13304-13309 (2006)). In this assay, the increase in the highly fluorescent coumberol can be determined by NADPH (nicotinamide adenine dinucleotide phosphate)-dependent reduction of the nonfluorescent coumberone by AKR1C3. […] NM_003739). This was expressed as the GST (glutathione S-transferase) fusion protein in E. coli and purified by means of glutathione-Sepharose affinity chromatography. The GST was removed by thrombin digestion with subsequent size exclusion chromatography (Dufort, I., Rheault, P., Huang, X F., Soucy, P., and Luu-The, V., Endocrinology 140, 568-574 (1999)). […] The concentration of the AKR1C3 was matched to the respective activity of the enzyme preparation and set such that the assay worked within the linear range. Typical concentrations were in the region of 1 nM. The reaction was stopped by adding 5 μl of a stop solution consisting of the inhibitor EM-1404 [F. Labrie et al. U.S. Pat. […] Subsequently, the fluorescence of coumberol was measured at 520 nm (excitation at 380 nm) with a suitable measuring instrument (Pherastar from BMG Labtechnologies).

Chain of AKR1C3 (P42330 whole entry): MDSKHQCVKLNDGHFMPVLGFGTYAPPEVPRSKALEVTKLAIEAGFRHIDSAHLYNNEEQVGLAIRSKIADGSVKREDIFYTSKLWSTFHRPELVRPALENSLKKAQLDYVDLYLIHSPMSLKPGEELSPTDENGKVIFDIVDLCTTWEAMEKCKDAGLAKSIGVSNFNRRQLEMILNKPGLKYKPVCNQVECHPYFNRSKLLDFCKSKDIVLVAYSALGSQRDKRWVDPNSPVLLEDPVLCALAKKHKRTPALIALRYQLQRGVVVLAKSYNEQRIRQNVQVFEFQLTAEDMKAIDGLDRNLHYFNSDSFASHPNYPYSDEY

For orientation: IC50 means the midpoint of a concentration-inhibition curve. As for `COc1cncc(C2=CC[C@H]3[C@@H]4CCc5cc(C(N)=O)ccc5[C@H]4CC[C@]23C)c1` [Example 2, 17-(5-methoxypyridin-3-yl)oestra-1,3,5(10),16-tetraene-3-carboxamide], the IC50 is 189 nM and 100 nM.

For `C[C@]12CC[C@@H]3c4ccc(C(N)=O)cc4CC[C@H]3[C@@H]1CC=C2c1cncc(C(F)(F)F)c1` [Example 3, 17-[5-(trifluoromethyl)pyridin-3-yl]oestra-1,3,5(10),16-tetraene-3-carboxamide], the IC50 was 46 nM and 25 nM.

`C[C@]12CC[C@@H]3c4ccc(C(N)=O)cc4CC[C@H]3[C@@H]1CC=C2c1cncnc1` [Example 5, 17-(pyrimidin-5-yl)oestra-1,3,5(10),16-tetraene-3-carboxamide]: the IC50 was 313 nM and 199 nM and 143 nM.

Take `C[C@]12CC[C@@H]3c4ccc(C(N)=O)cc4CC[C@H]3[C@@H]1CC=C2c1cncc(C#N)c1` [Example 6, 17-(5-cyanopyridin-3-yl)oestra-1,3,5(10),16-tetraene-3-carboxamide]: the half-maximal inhibitory concentration (IC50) is 346 nM.

In the case of `C[C@]12C[C@H](F)[C@@H]3c4ccc(C(=O)NCCS(N)(=O)=O)cc4CC[C@H]3[C@@H]1CC=C2c1cncc(F)c1` [Example 8, 11β-fluoro-17-(5-fluoropyridin-3-yl)-N-(2-sulphamoylethyl)oestra-1,3,5(10),16-tetraene-3-carboxamide], the IC50 worked out at 73 nM.

On to `C[C@]12CC[C@@H]3c4ccc(C(=O)N[C@H]5CCC[C@H]5O)cc4CC[C@H]3[C@@H]1CC=C2c1cncc(F)c1` [Example 9, 17-(5-fluoropyridin-3-yl)-N-[(1S,2R)-2-hydroxycyclopentyl]oestra-1,3,5(10),16-tetraene-3-carboxamide], for which the IC50 is 61 nM and 81 nM.

Regarding `CC(C)(CO)CNC(=O)c1ccc2c(c1)CC[C@@H]1[C@@H]2CC[C@]2(C)C(c3cncc(F)c3)=CC[C@@H]12` [Example 10, 17-(5-fluoropyridin-3-yl)-N-[2-(hydroxymethyl)-2-methylpropyl]oestra-1,3,5(10),16-tetraene-3-carboxamide], the IC50 was 97 nM and 46 nM.

On to `C[C@]12CC[C@@H]3c4ccc(C(=O)N[C@H]5CCC[C@@H]5O)cc4CC[C@H]3[C@@H]1CC=C2c1cncc(F)c1` [Example 11, 17-(5-fluoropyridin-3-yl)-N-[(1S,2S)-2-hydroxycyclopentyl]oestra-1,3,5(10),16-tetraene-3-carboxamide], for which the IC50 is 34 nM and 20 nM.

As to `C[C@]12CC[C@@H]3c4ccc(C(=O)NC5(CO)CCCC5)cc4CC[C@H]3[C@@H]1CC=C2c1cncc(F)c1` [Example 13, 17-(5-fluoropyridin-3-yl)-N-[1-(hydroxymethyl)cyclopentyl]oestra-1,3,5(10),16-tetraene-3-carboxamide], the IC50 is 108 nM and 79 nM.

Consider `C[C@]12CC[C@@H]3c4ccc(C(=O)N5CCC(O)CC5)cc4CC[C@H]3[C@@H]1CC=C2c1cncc(F)c1` [Example 14, 17-(5-fluoropyridin-3-yl)oestra-1,3,5(10),16-tetraen-3-yl 4-hydroxypiperidin-1-yl ketone], for which the IC50 was 54 nM and 37 nM.

With `CC[C@@H](CO)NC(=O)c1ccc2c(c1)CC[C@@H]1[C@@H]2CC[C@]2(C)C(c3cncc(F)c3)=CC[C@@H]12` [Example 15, 17-(5-fluoropyridin-3-yl)-N—[(S)-1-(hydroxymethyl)propyl]oestra-1,3,5(10),16-tetraene-3-carboxamide], the IC50 came out at 25 nM.

As for `CC(O)C(C)NC(=O)c1ccc2c(c1)CCC1C2CCC2(C)C(c3cncc(F)c3)=CCC12` [Example 18, rel-17-(5-fluoropyridin-3-yl)-N-[(1R,2R)-2-hydroxy-1-methylpropyl]oestra-1,3,5(10),16-tetraene-3-carboxamide], the IC50 was 45 nM and 35 nM.

`CC(C)N(CCO)C(=O)c1ccc2c(c1)CC[C@@H]1[C@@H]2CC[C@]2(C)C(c3cncc(F)c3)=CC[C@@H]12` [Example 19, 17-(5-fluoropyridin-3-yl)-N-(2-hydroxyethyl)-N-isopropyloestra-1,3,5(10),16-tetraene-3-carboxamide]: the IC50 is 60 nM and 48 nM.

On to `C[C@]12CC[C@@H]3c4ccc(C(=O)NCCS(N)(=O)=O)cc4CC[C@H]3[C@@H]1CC=C2c1cccnc1` [Example 23, 17-(3-pyridyl)-N-(2-sulphamoylethyl)oestra-1,3,5(10),16-tetraene-3-carboxamide], for which the IC50 was 9 nM.

For the compound `C[C@]12CC[C@@H]3c4ccc(C(=O)NCCS(N)(=O)=O)cc4CC[C@H]3[C@@H]1CC=C2c1cncc(C(F)(F)F)c1` [Example 24, N-(2-sulphamoylethyl)-17-[5-(trifluoromethyl)pyridin-3-yl]oestra-1,3,5(10),16-tetraene-3-carboxamide], the IC50 amounted to 17 nM.

Regarding `CNS(=O)(=O)CCNC(=O)c1ccc2c(c1)CC[C@@H]1[C@@H]2CC[C@]2(C)C(c3cncc(C(F)(F)F)c3)=CC[C@@H]12` [Example 25, N-[2-(N-methylsulphamoyl)ethyl]-17-[5-(trifluoromethyl)pyridin-3-yl]oestra-1,3,5(10),16-tetraene-3-carboxamide], the IC50 is 48 nM.

Consider `C[C@]12CC[C@@H]3c4ccc(C(=O)NCCC(N)=O)cc4CC[C@H]3[C@@H]1CC=C2c1cncc(F)c1` [Example 26, N-(3-amino-3-oxopropyl)-17-(5-fluoropyridin-3-yl)oestra-1,3,5(10),16-tetraene-3-carboxamide], for which the half-maximal inhibitory concentration (IC50) amounted to 5 nM.

Regarding `CNC(=O)CCNC(=O)c1ccc2c(c1)CC[C@@H]1[C@@H]2CC[C@]2(C)C(c3cncc(F)c3)=CC[C@@H]12` [Example 27, 17-(5-fluoropyridin-3-yl)-N-[3-(methylamino)-3-oxopropyl]oestra-1,3,5(10),16-tetraene-3-carboxamide], the IC50 came to 5 nM.

With `C[C@]12CC[C@@H]3c4ccc(C(=O)N5CCC[C@H]5C(N)=O)cc4CC[C@H]3[C@@H]1CC=C2c1cncc(F)c1` [Example 30, 1-{[17-(5-fluoropyridin-3-yl)oestra-1,3,5(10),16-tetraen-3-yl]carbonyl}-L-prolinamide], the IC50 is 12 nM.

Take `CC(C)(CNC(=O)c1ccc2c(c1)CC[C@@H]1[C@@H]2CC[C@]2(C)C(c3cncc(F)c3)=CC[C@@H]12)NS(C)(=O)=O` [Example 31, 17-(5-fluoropyridin-3-yl)-N-{2-methyl-2-[(methylsulphonyl)amino]propyl}oestra-1,3,5(10),16-tetraene-3-carboxamide]: the IC50 was determined as 19 nM.

Turning to `CCN(CCO)C(=O)c1ccc2c(c1)CC[C@@H]1[C@@H]2CC[C@]2(C)C(c3cncc(F)c3)=CC[C@@H]12` [Example 32, N-ethyl-17-(5-fluoropyridin-3-yl)-N-(2-hydroxyethyl)oestra-1,3,5(10),16-tetraene-3-carboxamide], the IC50 is 11 nM.

In the case of `CN(CCCO)C(=O)c1ccc2c(c1)CC[C@@H]1[C@@H]2CC[C@]2(C)C(c3cncc(F)c3)=CC[C@@H]12` [Example 34, 17-(5-fluoropyridin-3-yl)-N-(3-hydroxypropyl)-N-methyloestra-1,3,5(10),16-tetraene-3-carboxamide], the IC50 is 6 nM.

As for `C[C@]12CC[C@@H]3c4ccc(C(=O)NC[C@@H](O)CO)cc4CC[C@H]3[C@@H]1CC=C2c1cncc(F)c1` [Example 36, N—[(R)-2,3-dihydroxypropyl]-17-(5-fluoropyridin-3-yl)oestra-1,3,5(10),16-tetraene-3-carboxamide], the IC50 is 6 nM.

Take `C[S+]([O-])CCNC(=O)c1ccc2c(c1)CC[C@@H]1[C@@H]2CC[C@]2(C)C(c3cncc(F)c3)=CC[C@@H]12` (stereo partly shown) [Example 37, 17-(5-fluoropyridin-3-yl)-N-[2-(methylsulphinyl)ethyl]oestra-1,3,5(10),16-tetraene-3-carboxamide]: the IC50 stood at 5 nM.

For `CCNC(=O)c1ccc2c(c1)CC[C@@H]1[C@@H]2CC[C@]2(C)C(c3cncc(F)c3)=CC[C@@H]12` [Example 39, N-ethyl-17-(5-fluoropyridin-3-yl)oestra-1,3,5(10),16-tetraene-3-carboxamide], the IC50 was determined as 5 nM.

`COCCNC(=O)c1ccc2c(c1)CC[C@@H]1[C@@H]2CC[C@]2(C)C(c3cncc(F)c3)=CC[C@@H]12` [Example 41, 17-(5-fluoropyridin-3-yl)-N-(2-methoxyethyl)oestra-1,3,5(10),16-tetraene-3-carboxamide]: the IC50 is 8 nM.

For the compound `CC(C)S(=O)(=O)CCNC(=O)c1ccc2c(c1)CC[C@@H]1[C@@H]2CC[C@]2(C)C(c3cncc(F)c3)=CC[C@@H]12` [Example 42, 17-(5-fluoropyridin-3-yl)-N-[2-(isopropylsulphonyl)ethyl]oestra-1,3,5(10),16-tetraene-3-carboxamide], the IC50 came out at 11 nM.

As to `CN(CCO)C(=O)c1ccc2c(c1)CC[C@@H]1[C@@H]2CC[C@]2(C)C(c3cncc(F)c3)=CC[C@@H]12` [Example 44, 17-(5-fluoropyridin-3-yl)-N-(2-hydroxyethyl)-N-methyloestra-1,3,5(10),16-tetraene-3-carboxamide], the IC50 was determined as 12 nM.
